Key:
[1] = test system: HCV replicon RNA (GenBank Accession No. AJ242654); experiment: HCV Replicon Assay (replicon RNA reduction and/or Fluc reporter signal); type: cell-based, Hepatitis C virus; settings: Hepatitis C virus, 72 h, replicon-containing cells cultured with test compound for up to 3 days
Procedure, shortened: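 Bicistronic replicon-containing cells cultured with compound for up to 3 days, with interferon as positive control. Inhibition quantified by replicon RNA reduction and/or Fluc reporter signal; IC50 values generally derived from replicon RNA reduction.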

SMILES | melting point [°C] | IC50 [1] [µM]
N#Cc1c(-c2ccc(S(=O)(=O)NC(CF)CF)cc2)n(C2CCC2)c2ncccc12 [Cpd 34, 4-(3-cyano-1-cyclobutyl-1H-pyrrolo[2,3-b]pyridin-2-yl)-N-(1,3-difluoropropan-2-yl)benzenesulfonamide] | 180 to 182 | < 0.5
C[C@H](NS(=O)(=O)c1ccc(-c2c(C#N)c3cc(C(F)(F)F)cnc3n2C2CCC2)cc1)C(F)(F)F [Cpd 300, 4-[3-cyano-1-cyclobutyl-5-(trifluoromethyl)-1H-pyrrolo[2,3-b]pyridin-2-yl]-N-[(2S)-1,1,1-trifluoropropan-2-yl]benzenesulfonamide] | 218 to 220 | < 0.5
Cc1ccc2c(C#N)c(-c3ccc(S(=O)(=O)NC(C)(C)C)cn3)n(C3CCC3)c2n1 [Cpd 142, N-tert-butyl-6-(3-cyano-1-cyclobutyl-6-methyl-1H-pyrrolo[2,3-b]pyridin-2-yl)pyridine-3-sulfonamide] | 181 to 187 | < 0.5
CCCOc1cnc2c(c1)c(C#N)c(-c1ccc(S(=O)(=O)N[C@@H](C)C(F)(F)F)cn1)n2C1CCC1 [Cpd 204, 6-(3-cyano-1-cyclobutyl-5-propoxy-1H-pyrrolo[2,3-b]pyridin-2-yl)-N-[(2S)-1,1,1-trifluoropropan-2-yl]pyridine-3-sulfonamide] | 170 to 171 | < 0.5
Cc1cc(-c2c(C#N)c3cc(Cl)cnc3n2C2CCCC2)ncc1S(=O)(=O)N[C@@H](C)C(F)(F)F [Cpd 278, 6-(5-chloro-3-cyano-1-cyclopentyl-1H-pyrrolo[2,3-b]pyridin-2-yl)-4-methyl-N-[(2S)-1,1,1-trifluoropropan-2-yl]pyridine-3-sulfonamide] | 190 to 195 | < 0.5
NC(=O)c1c(-c2ccc(NS(=O)(=O)C3CCC3)cc2)n(C2CCCCC2)c2ncc(C(F)(F)F)cc12 [Cpd 449, 2-{4-[(cyclobutylsulfonyl)amino]phenyl}-1-cyclohexyl-5-(trifluoromethyl)-1H-pyrrolo[2,3-b]pyridine-3-carboxamide] | 256 to 258 | 0.5 to 2
Cc1cnc2c(c1)c(C#N)c(-c1ccc(S(=O)(=O)N[C@@H](C)C(F)(F)F)cn1)n2C1CCC1 [Cpd 69, 6-(3-cyano-1-cyclobutyl-5-methyl-1H-pyrrolo[2,3-b]pyridin-2-yl)-N-[(2S)-1,1,1-trifluoropropan-2-yl]pyridine-3-sulfonamide] | 177 to 179 | < 0.5
CC(C)(NS(=O)(=O)c1ccc(-c2c(C#N)c3cc(C4CC4)cnc3n2C2CCC2)cc1)C(F)(F)F [Cpd 121, 4-(3-cyano-1-cyclobutyl-5-cyclopropyl-1H-pyrrolo[2,3-b]pyridin-2-yl)-N-(1,1,1-trifluoro-2-methylpropan-2-yl)benzenesulfonamide] | 207 to 212 | < 0.5
COc1cnc2c(c1)c(C#N)c(-c1ccc(S(=O)(=O)NC(C)(C)C)cn1)n2C1CCC1 [Cpd 271, N-tert-butyl-6-(3-cyano-1-cyclobutyl-5-methoxy-1H-pyrrolo[2,3-b]pyridin-2-yl)pyridine-3-sulfonamide] | 174 to 176 | 0.5 to 2
CC(C)NS(=O)(=O)c1cnc(-c2c(C#N)c3cc(Cl)cnc3n2C2CCC2)nc1 [Cpd 58, 2-(5-chloro-3-cyano-1-cyclobutyl-1H-pyrrolo[2,3-b]pyridin-2-yl)-N-(propan-2-yl)pyrimidine-5-sulfonamide] | 224 to 225 | < 0.5
C[C@H](NS(=O)(=O)c1ccc(-c2c(C#N)c3cc(C(F)(F)F)cnc3n2C2CCCCC2)cc1)C(F)(F)F [Cpd 416, 4-[3-cyano-1-cyclohexyl-5-(trifluoromethyl)-1H-pyrrolo[2,3-b]pyridin-2-yl]-N-[(2S)-1,1,1-trifluoropropan-2-yl]benzenesulfonamide] | 190 to 192 | < 0.5
CC(C)(C)NS(=O)(=O)c1ccc(-c2c(C#N)c3cc(C(F)(F)F)cnc3n2CC2CC2)nc1 [Cpd 296, N-tert-butyl-6-[3-cyano-1-(cyclopropylmethyl)-5-(trifluoromethyl)-1H-pyrrolo[2,3-b]pyridin-2-yl]pyridine-3-sulfonamide] | 179 to 180 | < 0.5
N#Cc1c(-c2ncc(S(=O)(=O)NC(CF)CF)cn2)n(C2CCC2)c2ncc(Cl)cc12 [Cpd 13, 2-(5-chloro-3-cyano-1-cyclobutyl-1H-pyrrolo[2,3-b]pyridin-2-yl)-N-(1,3-difluoropropan-2-yl)pyrimidine-5-sulfonamide] | 199 to 200 | < 0.5
Cc1cc2c(cn1)c(C#N)c(-c1ccc(S(=O)(=O)N[C@H](C)C(F)(F)F)cc1)n2C1CCC1 [Cpd 31, 4-(3-cyano-1-cyclobutyl-6-methyl-1H-pyrrolo[3,2-c]pyridin-2-yl)-N-[(2R)-1,1,1-trifluoropropan-2-yl]benzenesulfonamide] | 247 to 249 | < 0.5
N#Cc1c(-c2ncc(S(=O)(=O)NC(CF)CF)cn2)n(C2CCC2)c2cc(Cl)ncc12 [Cpd 101, 2-(6-chloro-3-cyano-1-cyclobutyl-1H-pyrrolo[3,2-c]pyridin-2-yl)-N-(1,3-difluoropropan-2-yl)pyrimidine-5-sulfonamide] | 237 to 238 | < 0.5
N#Cc1c(-c2ccc(S(=O)(=O)NC(CF)CF)cn2)n(C2CCC2)c2ncc(F)cc12 [Cpd 12, 6-(3-cyano-1-cyclobutyl-5-fluoro-1H-pyrrolo[2,3-b]pyridin-2-yl)-N-(1,3-difluoropropan-2-yl)pyridine-3-sulfonamide] | 155 to 157 | 0.5 to 2
CC(C)(C)NS(=O)(=O)c1ccc(-c2c(C#N)c3cc(F)cnc3n2-c2ccccn2)nc1 [Cpd 522, N-tert-butyl-6-[3-cyano-5-fluoro-1-(pyridin-2-yl)-1H-pyrrolo[2,3-b]pyridin-2-yl]pyridine-3-sulfonamide] | 202.2 to 204.3 | < 0.5
CC(C)(C)NS(=O)(=O)c1ccc(-c2c(C#N)c3cc(F)cnc3n2-c2ccc(F)cc2)nc1 [Cpd 520, N-tert-butyl-6-[3-cyano-5-fluoro-1-(4-fluorophenyl)-1H-pyrrolo[2,3-b]pyridin-2-yl]pyridine-3-sulfonamide] | 259.1 to 260.7 | 2 to 5
Cc1cnc2c(C#N)c(-c3ccc(S(=O)(=O)N[C@@H](C)C(F)(F)F)cn3)n(-c3nccs3)c2c1 [Cpd 477, 6-[3-cyano-6-methyl-1-(1,3-thiazol-2-yl)-1H-pyrrolo[3,2-b]pyridin-2-yl]-N-[(2S)-1,1,1-trifluoropropan-2-yl]pyridine-3-sulfonamide] | 230 to 232 | < 0.5
Cc1cnc2c(c1)c(C#N)c(-c1ccc(S(=O)(=O)N[C@H](C)C(F)(F)F)cc1)n2C1CCCC1 [Cpd 262, 4-(3-cyano-1-cyclopentyl-5-methyl-1H-pyrrolo[2,3-b]pyridin-2-yl)-N-[(2R)-1,1,1-trifluoropropan-2-yl]benzenesulfonamide] | 189 to 195 | < 0.5
Cc1cnc2c(c1)c(C#N)c(-c1ccc(NC(=O)C(C)C)cc1)n2C1CCC1 [Cpd 265, N-[4-(3-cyano-1-cyclobutyl-5-methyl-1H-pyrrolo[2,3-b]pyridin-2-yl)phenyl]-2-methylpropanamide] | 134 to 140 | 0.5 to 2
Cc1cnc2c(c1)c(C#N)c(-c1ccc(S(=O)(=O)N[C@@H](C)C(F)(F)F)cc1)n2CC1CC1 [Cpd 487, 4-[3-cyano-1-(cyclopropylmethyl)-5-methyl-1H-pyrrolo[2,3-b]pyridin-2-yl]-N-[(2S)-1,1,1-trifluoropropan-2-yl]benzenesulfonamide] | 175 to 181 | < 0.5
CSc1cnc2c(c1)c(C#N)c(-c1ccc(S(=O)(=O)N[C@@H](C)C(F)(F)F)cn1)n2C1CCC1 [Cpd 323, 6-[3-cyano-1-cyclobutyl-5-(methylsulfanyl)-1H-pyrrolo[2,3-b]pyridin-2-yl]-N-[(2S)-1,1,1-trifluoropropan-2-yl]pyridine-3-sulfonamide] | 154 to 158 | < 0.5
C[C@H](NS(=O)(=O)c1cnc(-c2c(C#N)c3cc(Cl)cnc3n2C2CCC2)nc1)C(F)(F)F [Cpd 285, 2-(5-chloro-3-cyano-1-cyclobutyl-1H-pyrrolo[2,3-b]pyridin-2-yl)-N-[(2S)-1,1,1-trifluoropropan-2-yl]pyrimidine-5-sulfonamide] | 205 to 207 | < 0.5
COc1cnc2c(c1)c(C#N)c(-c1ccc(S(=O)(=O)NC(C)C)cc1)n2CC1CC1 [Cpd 2, 4-[3-cyano-1-(cyclopropylmethyl)-5-methoxy-1H-pyrrolo[2,3-b]pyridin-2-yl]-N-(propan-2-yl)benzenesulfonamide] | 151 to 153 | < 0.5
CC1(NS(=O)(=O)c2ccc(-c3c(C#N)c4cc(C5CC5)cnc4n3C3CCC3)nc2)CC1 [Cpd 128, 6-(3-cyano-1-cyclobutyl-5-cyclopropyl-1H-pyrrolo[2,3-b]pyridin-2-yl)-N-(1-methylcyclopropyl)pyridine-3-sulfonamide] | 178 to 185 | < 0.5
C[C@H](NS(=O)(=O)c1ccc(-c2c(C#N)c3cc(Cl)cnc3n2C2CCCC2)nc1)C(F)(F)F [Cpd 24, 6-(5-chloro-3-cyano-1-cyclopentyl-1H-pyrrolo[2,3-b]pyridin-2-yl)-N-[(2S)-1,1,1-trifluoropropan-2-yl]pyridine-3-sulfonamide] | 197 to 199 | < 0.5
C[C@H](NS(=O)(=O)c1ccc(-c2c(C#N)c3cc(C4CC4)ncc3n2C2CCC2)cc1)C(F)(F)F [Cpd 224, 4-(3-cyano-1-cyclobutyl-5-cyclopropyl-1H-pyrrolo[2,3-c]pyridin-2-yl)-N-[(2S)-1,1,1-trifluoropropan-2-yl]benzenesulfonamide] | 190 to 195 | < 0.5
